Experimental data as given in patent US8354106B2, “Antibodies against HMGB1 and fragments thereof” (The Feinstein Institute for Medical Research, priority 2005, dated 2013).
Where no end group is shown, it is not given here. The star is where a group is joined. Biotin = O=C1N[C@H]2[C@H](CS[C@H]2CCCCC(=O)*)N1

Key:
immature BM-DCs = experiment: Phenotypic maturation of murine BM-DCs: surface maturation markers by FACS; format: cell-based, mouse; conditions: CD11c+ gated, mean fluorescence intensity, peptide 200 μg/ml, HMGB1-Bx 50 μg/ml; for CD86 expression on the surface of BM-DCs: FIG. 3A; for MHC-II expression on the surface of BM-DCs: FIG. 3B; for CD40 expression on the surface of BM-DCs: FIG. 3C
Method: In order to determine whether HMGB1-Bx and/or particular HMGB1 peptides could induce phenotypic maturation of murine DCs, immature BM-DCs were exposed to either HMGB1-Bx, a particular HMGB1 peptide, or LPS (FIG. 3). Fluorescence activated cell sorting (FACS) analysis was performed on immature DCs that were cultured in the presence of either HMGB1-Bx (50 μg/ml), an HMGB1 peptide (200 μg/ml), or LPS (100 ng/ml). Untreated DCs (medium) were also tested as a control. DCs were gated on CD11c^+ cells and analyzed for expression of specific maturation markers (e.g., CD86, MHC-II, CD40) by surface membrane immunofluorescence. In particular, 1×10^4 DCs were reacted for at least 20 min at 4° C. in […] of PBS/5% FCS/0.1% sodium azide (staining buffer) with fluorescein isothiocyanate (FITC)-conjugated IgG monoclonal antibodies (mAbs) that are specific for CD86, CD40 or MHC-II (eBioscience). Cells were then washed 4 times with staining buffer, fixed in 10% formaldehyde in PBS (pH 7.2-7.4) and examined by flow cytometry using a FACScan (BD Biosciences). In all experiments, isotype controls were included using a FITC-conjugated irrelevant mAb of the same Ig class. Results are depicted as mean fluorescence intensity (MFI).

[1] = tested on: allogeneic T cells co-cultured with BM-DCs; experiment: Functional maturation of BM-DCs: allogeneic T cell proliferation in mixed lymphocyte reaction (3H-thymidine); format: cell-based, mouse; conditions: BM-DCs from C57/BL6 mice exposed 48 h; peptide 200 μg/ml, HMGB1-Bx 50 μg/ml; DC:T cell ratio 1:120, 5 days; FIG. 4A
Method: Immature BM-DCs that were generated from C57/BL6 mice (FIG. 4A) or Balb/c mice (FIG. 4B) were incubated for 48 h with either HMGB1-Bx (50 μg/ml), a particular HMGB1 peptide (200 μg/ml), LPS (100 ng/ml) or were left untreated (medium). T cells were isolated by negative selection using the mouse SpinSep antibody cocktail from StemCell Technologies (Vancouver, Calif.), according to the manufacturer's instructions. The cell purity of the isolated T cells was routinely ˜99% pure. In order to assess levels of T cell activation and proliferation, cells were plated at 10^5 cells per well in a round-bottomed 96-well tray at a DC:T cell ratio of 1:120 for 5 days in the medium described above. The microcultures were pulsed with (^3H)-thymidine ([…]) for the final 8 h of culture. Cell cultures were harvested onto glass fiber filters with an automated multiple sample harvester and the amount of isotope incorporation was determined by liquid scintillation β-emission. Responses are reported as mean cpm of thymidine incorporation by triplicate cultures (±SEM).

## CSEYRPKIKGEHPGLSIG [Hp-106] (Biotin-CSEYRPKIKGEHPGLSIG; listed as Homo sapiens)
Immature BM-DCs
  CD86 expression on the surface of BM-DCs: did not significantly enhance
  MHC-II expression on the surface of BM-DCs: did not significantly enhance
  CD40 expression on the surface of BM-DCs: did not significantly enhance
[1]
  proliferation of resting allogeneic T cells (3H thymidine incorporation): activated proliferation

## YAFFVQTCREEHIKKHPD [Hp-16]
Immature BM-DCs
  CD86 expression on the surface of BM-DCs: strong upregulation
  MHC-II expression on the surface of BM-DCs: strong upregulation
  CD40 expression on the surface of BM-DCs: strong upregulation
[1]
  proliferation of resting allogeneic T cells (3H thymidine incorporation): activated proliferation
